Article PMC8972196, “A Set of Experimentally Validated Decoys for the Human CC Chemokine Receptor 7 (CCR7) Obtained by Virtual Screening” (Frontiers in Pharmacology, 2022)
Like-named read-outs stand apart in the source and are kept apart here.

Target: T1, human CCR7 (Homo sapiens, UniProt P32248)
T1 construct: expressed in transfected cells
T1 sequence (P32248 25-378): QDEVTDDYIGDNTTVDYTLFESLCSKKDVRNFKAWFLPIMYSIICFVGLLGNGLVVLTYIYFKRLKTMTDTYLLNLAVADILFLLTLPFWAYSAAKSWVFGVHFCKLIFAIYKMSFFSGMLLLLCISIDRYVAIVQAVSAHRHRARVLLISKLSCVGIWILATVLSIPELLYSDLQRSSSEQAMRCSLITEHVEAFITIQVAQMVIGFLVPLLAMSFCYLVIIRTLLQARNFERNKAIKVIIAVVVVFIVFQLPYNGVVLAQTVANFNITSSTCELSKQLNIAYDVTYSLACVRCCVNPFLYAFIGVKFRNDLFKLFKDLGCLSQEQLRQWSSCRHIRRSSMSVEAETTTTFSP
Assay: CCL19-induced calcium mobilization assay, U87.CD4 cells expressing CCR7
Type: cell-based
Conditions: for IC50: read-out: IC50 [μM] block CCL19 induced calcium signaling
Method: U87.CD4 cells that stably express either human CCR7, CXCR2, CCR5 or CXCR4 were seeded (20,000 cells/well) in gelatin-coated black-walled polystyrene 96-well plates with clear bottom and incubated overnight at 37°C and 5% CO2. […] Culture medium was removed, and cells were incubated for 45 min at room temperature in the dark. […] Exactly the same protocol was used to record calcium responses in Chinese hamster ovary (CHO)-K1 cells, upon stimulation with adenosine triphosphate (ATP, purchased from Sigma).

[1] = CCL19-induced calcium signaling
[2] = classification of tested compounds as decoy or active
[3] = CCL19 induced calcium signaling
[4] = classification as decoy or active on CCR7

IC50 [1] [µM] | Decoy – 0 Active – 1 [2] | IC50 [3] [µM] | Decoy – 0 Active – 1 [4] | SMILES
> 30 | 0 | – | – | NC(=S)Nc1n[nH]c2ccccc12 [C049, S=C(NC1=NNC2=C1C=CC=C2)N]
> 10 | 0 | – | – | Cc1cc(NCC(=O)N(C)Cc2ccco2)ccc1C(=O)N(C)C [C060, Cc1cc(NCC(=O)N(C)Cc2ccco2)ccc1C(=O)N(C)C]
– | – | > 50 | 0 | Cc1c(C(=O)NC2CC2c2ccc(F)cc2F)[nH]c2c1C(=O)CCC2 (centres unmarked) [C205, Cc1c(C(=O)NC2CC2c2ccc(F)cc2F)[nH]c2c1C(=O)CCC2]
> 50 | 0 | – | – | COc1ccc(CNc2c(NC(C)c3ccccc3)c(=O)c2=O)cc1OC (centres unmarked) [C014, COc1ccc(CNc2c(NC(C)c3ccccc3)c(=O)c2=O)cc1OC]
> 50 | 0 | – | – | O=c1c(Nc2cc(C(F)(F)F)cc(C(F)(F)F)c2)c(N[C@H]2CCCC[C@@H]2N2CCCCC2)c1=O [C023, O=C1C(N[C@H]2CCCC[C@@H]2N3CCCCC3)=C(NC4=CC(C(F)(F)F)=CC(C(F)(F)F)=C4)C1=O]
> 50 | 0 | – | – | CN(C)C(=O)c1cccc(N[C@H]2CCCN(Cc3cccc(O)c3)C2)n1 [C111, CN(C)C(=O)c1cccc(N[C@H]2CCC[N@H+](Cc3cccc(O)c3)C2)n1]
> 50 | 0 | – | – | CC(C)[C@@H](NC(=O)CCN1CCCCCC1=O)c1ccccc1 [C112, CC(C)[C@@H](NC(=O)CCN1CCCCCC1=O)c1ccccc1]
– | – | > 50 | 0 | COc1ccc(S(=O)(=O)NC(c2ccc(F)cc2)c2nccn2C)cc1 (centres unmarked) [C267, Cn1ccnc1C(c2ccc(cc2)F)NS(=O)(=O)c3ccc(cc3)OC]
> 10 | 0 | – | – | CCCNC(=O)CNc1ccc(C)c(C(=O)N(C)C)c1 [C066, CCCNC(=O)CNc1ccc(C)c(C(=O)N(C)C)c1]
> 50 | 0 | – | – | Cc1ocnc1C(=O)N[C@@H]1CC(=O)N(Cc2ccc(F)cc2)C1 [C139, Cc1ocnc1C(=O)N[C@@H]1CC(=O)N(Cc2ccc(F)cc2)C1]
– | – | > 50 | 0 | COc1ccc(S(=O)(=O)Nc2ccccc2C(=O)N2CCOCC2)cc1Br [C251, COc1ccc(cc1Br)S(=O)(=O)Nc2ccccc2C(=O)N3CCOCC3]
> 50 | 0 | – | – | CCn1nccc1[C@H]1NC(=O)CC[C@H]1NC(=O)c1cc(C)n(C)n1 [C152, CCn1nccc1[C@H]1NC(=O)CC[C@H]1NC(=O)c1cc(C)n(C)n1]
> 10 | 0 | – | – | CC(=O)c1cccc(NC(=O)NC(c2ccc(C)o2)C(C)(C)C)c1 (centres unmarked) [C062, CC(=O)c1cccc(NC(=O)NC(c2ccc(C)o2)C(C)(C)C)c1]
– | – | > 50 | 0 | Cc1ccc2c(CCNc3nc4[nH]ncc4c(=O)[nH]3)cn(C)c2c1 [C206, Cc1ccc2c(CCNc3nc4[nH]ncc4c(=O)[nH]3)cn(C)c2c1]
> 30 | 0 | – | – | O=C1NCCN1CCNC(=S)Nc1cc(C(F)(F)F)cc(C(F)(F)F)c1 [C034, FC(F)(F)c1cc(NC(=S)NCCN2CCNC2=O)cc(c1)C(F)(F)F]
> 50 | 0 | – | – | O=C1C[C@H](NC(=O)CCn2cccn2)CN1 [C145, O=C1C[C@H](NC(=O)CCn2cccn2)CN1]
– | – | > 50 | 0 | Cc1noc(C)c1CNC(=O)COc1ccccc1CO [C172, Cc1noc(C)c1CNC(=O)COc1ccccc1CO]
– | – | > 50 | 0 | COc1ccc(C(=O)C2CCCN(Cc3cc4ccccc4[nH]3)C2)c(OC)c1 (centres unmarked) [C273, COc1ccc(C(=O)C2CCCN(Cc3cc4ccccc4[nH]3)C2)c(OC)c1]

IC50 [1] [µM] | Decoy – 0 Active – 1 [2] | IC50 [3] [µM] | Decoy – 0 Active – 1 [4] | SMILES
> 50 | 0 | – | – | Cc1cccc(CN2CCC[C@H](Nc3ccc(C)c(C)c3)C2)n1 [C083, Cc1cccc(C[N@H+]2CCC[C@H](Nc3ccc(C)c(C)c3)C2)n1]
> 10 | 0 | – | – | CCc1ccc(C(NC(=O)C(=O)Nc2cccnc2C)C(C)(C)C)o1 (centres unmarked) [C069, CCc1ccc(C(NC(=O)C(=O)Nc2cccnc2C)C(C)(C)C)o1]
> 50 | 0 | – | – | O=c1c(NCc2cc(C(F)(F)F)cc(C(F)(F)F)c2)c(NCc2cc(C(F)(F)F)cc(C(F)(F)F)c2)c1=O [C017, O=C1C(NCC2=CC(C(F)(F)F)=CC(C(F)(F)F)=C2)=C(NCC3=CC(C(F)(F)F)=CC(C(F)(F)F)=C3)C1=O]
– | – | > 50 | 0 | CC1CN(C(=O)c2cc3c(OC(F)(F)F)cccc3[nH]2)CC(=O)N1 (centres unmarked) [C176, CC1CN(C(=O)c2cc3c(OC(F)(F)F)cccc3[nH]2)CC(=O)N1]
> 10 | 0 | – | – | CC(=O)Nc1cccc(NCC(=O)N(Cc2ccc(C)o2)C2CC2)c1 [C054, CC(=O)Nc1cccc(NCC(=O)N(Cc2ccc(C)o2)C2CC2)c1]
> 30 | 0 | – | – | OCc1ccccc1NC(=S)NCc1ccccc1 [C038, OCc1ccccc1NC(=S)NCc1ccccc1]
– | – | > 50 | 0 | O=C(NC1CCCCNC1=O)NC1CCSc2ccccc21 (centres unmarked) [C202, O=C(NC1CCCCNC1=O)NC1CCSc2ccccc21]
– | – | > 50 | 0 | O=C1CCC(C(=O)N2CCCC2c2ccc3c(c2)OCO3)N1 (centres unmarked) [C231, O=C1CCC(C(=O)N2CCCC2c2ccc3c(c2)OCO3)N1]
> 50 | 0 | – | – | C[S@+]([O-])c1cccc(NC(=O)NCC2(c3cccc(F)c3)CC2)c1 [C130, C[S@](=O)c1cccc(NC(=O)NCC2(c3cccc(F)c3)CC2)c1]
> 50 | 0 | – | – | C[C@H](c1ccccc1)[C@@H](C)NC(=O)N[C@H]1CCN(C)C1=O [C114, C[C@@H](NC(=O)N[C@H]1CCN(C)C1=O)[C@H](C)c1ccccc1]
– | – | > 50 | 0 | CCc1cc(C(=O)NCC(O)c2ccc(O)cc2)cc(=O)[nH]1 (centres unmarked) [C203, CCc1cc(C(=O)NCC(O)c2ccc(O)cc2)cc(=O)[nH]1]
> 50 | 0 | – | – | CN(Cc1ccccc1N[C@H]1CCN(C)C1=O)C(=O)c1cccs1 [C124, CN(Cc1ccccc1N[C@H]1CCN(C)C1=O)C(=O)c1cccs1]
– | – | > 50 | 0 | CC1CN(Cc2ccccc2)CCC1N(C)CC(=O)NC12CC3CC(CC(C3)C1)C2 (centres unmarked) [C281, CC1CN(Cc2ccccc2)CCC1N(C)CC(=O)NC12CC3CC(CC(C3)C1)C2]
> 50 | 0 | – | – | C[C@@H](CNC(=O)Nc1ccnc(C(=O)N(C)C)c1)c1cccs1 [C119, C[C@@H](CNC(=O)Nc1ccnc(C(=O)N(C)C)c1)c1cccs1]
> 50 | 0 | – | – | CC(O)CNc1c(NCc2ccc3c(c2)OCO3)c(=O)c1=O (centres unmarked) [C001, CC(O)CNc1c(NCc2ccc3c(c2)OCO3)c(=O)c1=O]
– | – | > 50 | 0 | CCc1ccc(C(NC(=O)NC2C=CC(CO)C2)C(C)(C)C)o1 (centres unmarked) [C200, CCc1ccc(C(NC(=O)NC2C=CC(CO)C2)C(C)(C)C)o1]
> 50 | 0 | – | – | CCOC(=O)c1c(C)c(CCC(=O)N[C@H](C)c2ccccc2)c(C)n1C [C082, CCOC(=O)c1c(C)c(CCC(=O)N[C@H](C)c2ccccc2)c(C)n1C]
– | – | > 50 | 0 | O=C(CN1CCCC1Cc1ccccc1Cl)NC1CCCCNC1=O (centres unmarked) [C284, O=C(CN1CCCC1Cc1ccccc1Cl)NC1CCCCNC1=O]

SMILES | IC50 [1] [µM] | Decoy – 0 Active – 1 [2] | IC50 [3] [µM] | Decoy – 0 Active – 1 [4]
CNC(=O)c1ccc(C=CC(=O)N(C2CC2)C(C)c2ccco2)cc1 (centres unmarked) [C055, CNC(=O)c1ccc(C=CC(=O)N(C2CC2)C(C)c2ccco2)cc1] | > 10 | 0 | – | –
Cc1ccc(NC(=O)CN(C)C[C@@H]2CCCO2)cc1[N+](=O)[O-] [C106, Cc1ccc(NC(=O)C[N@@H+](C)C[C@@H]2CCCO2)cc1[N+](=O)[O-]] | > 50 | 0 | – | –
COc1ccc(C)cc1NC(=S)N1CCN(c2ccccc2O)CC1 [C026, COc1ccc(C)cc1NC(=S)N1CCN(CC1)c1ccccc1O] | > 30 | 0 | – | –
Cc1cccnc1C1(CNc2cc(N3CCC[C@H](CO)C3)ncn2)CC1 [C080, Cc1cccnc1C1(CNc2cc(N3CCC[C@H](CO)C3)ncn2)CC1] | > 50 | 0 | – | –
CCNC(=O)c1ccc(CNS(=O)(=O)c2ccc3c(c2)CCC3)cc1 [C261, CCNC(=O)c1ccc(cc1)CNS(=O)(=O)c2ccc3c(c2)CCC3] | – | – | > 50 | 0
COc1ccc(CNc2c(NCc3ccc4c(c3)OCO4)c(=O)c2=O)cc1 [C012, COc1ccc(CNc2c(NCc3ccc4c(c3)OCO4)c(=O)c2=O)cc1] | > 50 | 0 | – | –
N=C(Nc1ccc(Br)cc1)C(N)=Nc1ccc(Br)cc1 [C077, NC(=[NH+]c1ccc(Br)cc1)C(=[NH2+])Nc1ccc(Br)cc1] | > 10 | 0 | – | –
CCOC(=O)CNC(=S)Nc1ncccc1C [C043, CC1=CC=CN=C1NC(NCC(OCC)=O)=S] | > 30 | 0 | – | –
O=C(CN(c1ccc(Br)cc1)S(=O)(=O)c1ccccc1)Nc1ccccc1C(=O)N1CCOCC1 [C233, c1ccc(cc1)S(=O)(=O)N(CC(=O)Nc2ccccc2C(=O)N3CCOCC3)c4ccc(cc4)Br] | – | – | > 50 | 0
CC1(O)CN(C(=O)c2cc3c(Br)cccc3[nH]2)C1 [C175, CC1(O)CN(C(=O)c2cc3c(Br)cccc3[nH]2)C1] | – | – | > 50 | 0
